{"source": "patent US20050049186A1", "about": "“Peptides mimicking the biological activity of steroid hormones and their uses” (priority 2000, published 2005)", "key": {"ER β": {"target": "ER β (Homo sapiens, UniProt Q92731)", "sequence (Q92731 whole entry, species assumed)": "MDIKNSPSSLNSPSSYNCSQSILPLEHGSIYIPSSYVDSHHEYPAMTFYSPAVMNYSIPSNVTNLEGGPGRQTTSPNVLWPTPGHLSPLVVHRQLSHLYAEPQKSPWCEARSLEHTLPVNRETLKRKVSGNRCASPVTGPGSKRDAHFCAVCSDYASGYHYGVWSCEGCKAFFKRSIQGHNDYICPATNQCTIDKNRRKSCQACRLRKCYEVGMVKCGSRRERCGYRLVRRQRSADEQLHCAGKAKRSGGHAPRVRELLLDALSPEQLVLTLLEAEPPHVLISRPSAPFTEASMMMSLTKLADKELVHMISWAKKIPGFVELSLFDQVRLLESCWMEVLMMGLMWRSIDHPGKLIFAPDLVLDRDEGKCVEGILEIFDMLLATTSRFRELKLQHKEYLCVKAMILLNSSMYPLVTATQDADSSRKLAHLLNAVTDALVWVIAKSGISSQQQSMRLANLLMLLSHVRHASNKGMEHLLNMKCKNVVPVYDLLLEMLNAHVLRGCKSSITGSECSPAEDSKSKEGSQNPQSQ", "test": "Receptor binding assay for estrogen receptor beta"}, "[1]": {"target": "anti-estradiol mAb, clone 15", "test": "Competitive binding radioimmunoassay with [3H]-estradiol", "parameters": "species or system mouse", "conditions": "RIA, FIG. 1; read-out: IC50, competition with [3H]-estradiol for binding sites of anti-estradiol mAb clone 15"}, "[2]": {"tested_on": "anti-E2 antibodies, clones 8D9, 11B6 and 2F9", "test": "ELISA: competition with solid-phase estradiol ovalbumin conjugate for other high affinity anti-E2 antibodies", "type": "binding", "conditions": "peptide at 0.5 mM", "description": "(§1) ELISA methodology was used first for the initial screening of the various peptides for antibody binding specificity."}, "anti-E2, clone 15": {"tested_on": "anti-E2, clone 15", "test": "ELISA: competition with solid-phase estradiol ovalbumin conjugate for anti-E2 clone 15", "type": "binding, mouse", "description": "as §1"}, "[3]": {"tested_on": "anti-progesterone, clone 1E11, anti-estriol, clone 9B4, anti-testosterone, clone 5F2", "test": "ELISA: competition with solid phase hapten protein conjugates for homologous anti-steroidal antibodies", "type": "binding", "conditions": "data not shown", "description": "as §1"}, "[4]": {"tested_on": "creatine kinase (CK) specific activity in rat tissues", "test": "Stimulation of creatine kinase specific activity in rat tissues in vivo", "method": "The control goups received 0.5 ml saline containing 0.5% ethanol or tris-saline alone. The various organs were assayed for CK activity four hours after treatment."}, "[5]": {"target": "anti-estradiol mAb clone 15", "test": "Competitive immunoassay: inhibition of binding of labeled E2 (estradiol ovalbumin europium conjugate) to anti-E2 clone 15", "parameters": "species or system mouse", "conditions": "Table 5; estradiol ovalbumin europium conjugate", "description": "[…]. The linear peptide 1 is 15-amino acid long. We further explored the possibility whether smaller peptides derived from peptide 1 may have antibody binding activity and receptor binding activity. In order to find out the minimum amino acid sequence required in the linear peptide 1 for antibody and receptor binding, several peptides with varying length of from 4 to 14 amino acids long were synthesized, and were first evaluated in terms of binding to anti-estradiol (E2) mAb clone 15. The peptides showing similar or better antibody binding activity than the linear peptide 1 were further evaluated in terms of binding to ERα and β."}, "[6]": {"tested_on": "anti-progesterone mAb clone 1E11", "test": "RIA: competition with [3H]-progesterone for anti-progesterone clone 1E11", "parameters": "species or system mouse", "conditions": "FIG. 4, read-out: IC50, competition with [3H]-progesterone for binding sites of anti-progesterone clone 1E11", "description": "In order to confirm the specific binding activity of the peptides 3 and 4 for the anti-progesterone mnAb clone 1E11, a RIA system where the peptides competed with [^3H]-progesterone for the binding sites of clone 1E11 was used. […]"}, "[7]": {"conditions": "immature female rats, four hours after treatment, estradiol 5 μg/rat, peptides and raloxifene 0.5 mg/rat, mean ± S.E.M., n=15"}}, "note": "Peptide text beside a SMILES is read from it.", "data": [{"compound": "CC(C)C[C@H](NC(=O)[C@H](C)NC(=O)[C@@H]1CCCN1C(=O)[C@@H](N)CC(C)C)C(=O)N[C@@H](CC(=O)O)C(=O)N1CCC[C@H]1C(=O)N[C@H](C(=O)N[C@@H](CCCCN)C(=O)N[C@@H](CCCNC(=N)N)C(=O)N[C@@H](Cc1c[nH]c2ccccc12)C(=O)N[C@@H](Cc1ccccc1)C(=O)N[C@@H](Cc1ccccc1)C(=O)N[C@@H](CCC(=O)O)C(=O)N[C@H](C(=O)N[C@@H](CCCCN)C(=O)O)[C@@H](C)O)[C@@H](C)O", "note": "[Peptide 1] (H-LPALDPTKRWFFETK-OH; N-terminus and C-terminus assumed)", "values": [{"measurement": "binding to ER β", "setting": "ER β; FIG. 3", "value": "none"}, {"measurement": "IC50 to ERβ", "setting": "ER β; Table 5", "value": "none"}, {"measurement": "IC50", "setting": "[1]", "value": "~5", "unit": "µM"}, {"measurement": "inhibition of the binding of immobilized estradiol ovalbumin conjugate to other high affinity anti-E2 antibodies", "setting": "[2]", "value": "not"}, {"measurement": "inhibition of the binding of immobilized estradiol ovalbumin conjugate to anti-E2, clone 15", "setting": "anti-E2, clone 15; ELISA, peptide at a concentration of 0.5 mM", "value": 36, "unit": "%"}, {"measurement": "recognition of anti-E2 mAb clone 15", "setting": "anti-E2, clone 15; initial binding studies", "value": "recognized"}, {"measurement": "competing with solid phase hapten protein conjugates for the binding sites of homologous anti-steroidal antibodies", "setting": "[3]", "value": "not capable of competing"}, {"measurement": "stimulation of CK activity in rat tissues", "setting": "[4]; higher concentration 2.5 mg/rat, data not shown", "value": "stimulated the CK activity in the epiphysis and aorta as well"}, {"measurement": "increase in the specific activity of creatine kinase (CK) in rat tissues", "setting": "[4]; immature female rats, 4 hours, estradiol 5 μg/rat, peptides 0.5 mg/rat", "value": "increase in CK activity only in the uterus and left ventricle"}, {"measurement": "Creatine kinase specific activity (Experimental/control), Aorta", "setting": "[4]; [7]", "value": "1.35 ± 0.23"}, {"measurement": "Creatine kinase specific activity (Experimental/control), Diapysis", "setting": "[4]; [7]", "value": "1.09 ± 0.17"}, {"measurement": "Creatine kinase specific activity (Experimental/control), Epipysis", "setting": "[4]; [7]", "value": "1.10 ± 0.09"}, {"measurement": "Creatine kinase specific activity (Experimental/control), LV (left ventricle)", "setting": "[4]; [7]", "value": "1.41 ± 03"}, {"measurement": "Creatine kinase specific activity (Experimental/control), Uterus", "setting": "[4]; [7]", "value": "1.6 ± 0.27"}, {"measurement": "IC50", "setting": "[5]", "value": 1, "unit": "µM"}]}, {"compound": "CC[C@H](C)[C@H](NC(=O)[C@@H](NC(=O)[C@H](CO)NC(=O)[C@H](CC(C)C)NC(=O)[C@H](Cc1ccccc1)NC(=O)[C@H](CCC(N)=O)NC(=O)[C@H](C)NC(=O)[C@H](CCC(N)=O)NC(=O)[C@H](CC(=O)O)NC(=O)[C@H](Cc1c[nH]c2ccccc12)NC(=O)[C@@H]1CCCN1C(=O)[C@H](Cc1c[nH]cn1)NC(=O)[C@H](CC(N)=O)NC(=O)[C@@H](N)C(C)C)[C@@H](C)O)C(=O)O", "note": "[Peptide 3] (H-VNHPWDQAQFLSTI-OH)", "values": [{"measurement": "IC50", "setting": "[6]", "value": "~100", "unit": "µM"}]}, {"compound": "CC(C)[C@H](NC(=O)[C@H](Cc1c[nH]cn1)NC(=O)[C@@H]1CSSC[C@H](NC(=O)[C@H](Cc2ccccc2)NC(=O)[C@@H]2CCCN2C(=O)[C@H](CC(N)=O)NC(=O)[C@@H](N)CO)C(=O)N[C@@H](CCC(N)=O)C(=O)N[C@@H]([C@@H](C)O)C(=O)N[C@@H](CC(=O)O)C(=O)NCC(=O)N[C@@H](CC(=O)O)C(=O)N1)C(=O)N[C@@H](Cc1c[nH]cn1)C(=O)N[C@H](C(=O)O)[C@@H](C)O", "note": "[Peptide 4] (HELM PEPTIDE1{S.N.P.F.C.Q.T.D.G.D.C.H.V.H.T}$PEPTIDE1,PEPTIDE1,5:R3-11:R3$$$V2.0; N-terminus and C-terminus assumed; bridges inferred)", "values": [{"measurement": "IC50", "setting": "[6]", "value": "~5", "unit": "µM"}]}, {"compound": "CC(=O)[C@H]1CC[C@H]2[C@@H]3CCC4=CC(=O)CC[C@]4(C)[C@H]3CC[C@]12C", "note": "[Progesterone, progesterone, reference compound]", "values": [{"measurement": "IC50", "setting": "[6]", "value": "< 0.001", "unit": "µM"}]}]}
